Among the test systems are SF-268 CNS; HL-60(TB) leukemia; NCI/ADR-RES ovarian; IGROV1 ovarian; SK-OV-3 ovarian; U251 CNS; HCT-15 colon; COLO 205 colon; A549 NSCLC; NCI-H23 lung.
Common to all, as to assay: NCI tumour cell line growth inhibition, 48 h

SMILES strings stand for the structures.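 How tested: cells in 96-well plates exposed to compound for 48 hours at five concentrations. GI50 is the concentration that inhibits growth by half. TGI denotes the concentration required for complete inhibition of growth.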

Results on 14 molecules are retold here after PubChem BioAssay (NCI).

Regarding `COc1ccc2nc(-n3c(/C=C/c4ccccc4O)nc4ccccc4c3=O)sc2c1`, the TGI in the experiment with SF-268 CNS, in the experiment with HL-60(TB) leukemia, in the experiment on NCI/ADR-RES ovarian, with IGROV1 ovarian, with SK-OV-3 ovarian and in the experiment on U251 CNS was > 100 µM each time. Moreover, the TGI in the experiment on HCT-15 colon, in the experiment on COLO 205 colon, in the experiment on A549 NSCLC and in the experiment with NCI-H23 lung was > 100 µM each time.

As to `COc1ccc(/C=C2\C(=O)N(C3OC(COC(C)=O)C(OC(C)=O)C(OC(C)=O)C3OC(C)=O)c3ccccc3N=C2N)cc1` (stereo not given), the TGI is > 100 µM in the experiment on SF-268 CNS; 41.9 µM in the experiment with HL-60(TB) leukemia; 83.9 µM with NCI/ADR-RES ovarian; > 100 µM with IGROV1 ovarian; > 100 µM in the experiment with SK-OV-3 ovarian; > 100 µM with U251 CNS. Further, the TGI is > 100 µM in the experiment on HCT-15 colon, 34 µM in the experiment on COLO 205 colon, > 100 µM in the experiment with A549 NSCLC and 59.1 µM in the experiment on NCI-H23 lung.

Take `C[C@]12CC[C@@H]3c4ccc(OP(=O)(O)O)cc4CC[C@H]3[C@@H]1CCC2=O`: the TGI in the experiment on SF-268 CNS, in the experiment with HL-60(TB) leukemia, with NCI/ADR-RES ovarian, with IGROV1 ovarian, in the experiment on SK-OV-3 ovarian and in the experiment on U251 CNS was > 100 µM each time. Further, the TGI with HCT-15 colon, with COLO 205 colon, in the experiment with A549 NSCLC and in the experiment with NCI-H23 lung was > 100 µM in each case.

As to `CC[C@H]1C=CCC[C@@]2(C[C@@H]3CC[C@@H]4[C@H](C(=O)OCCCCCCCCCCCCCCCC(=O)O)[C@]5(CCC[C@@H](C)O5)NC(=[N+]34)N2)O1`, the TGI in the experiment on SF-268 CNS stood at 3.07 µM; with HL-60(TB) leukemia, 0.636 µM; in the experiment with NCI/ADR-RES ovarian, 14.8 µM; in the experiment on IGROV1 ovarian it was 8.93 µM; in the experiment with SK-OV-3 ovarian, 11.8 µM; with U251 CNS it was 0.903 µM. For the same molecule, the TGI came out at 7.77 µM in the experiment on HCT-15 colon, 1.34 µM in the experiment with COLO 205 colon, 5.87 µM with A549 NSCLC and 4.83 µM in the experiment on NCI-H23 lung.

`Cn1c(=S)[nH]c2sc3c(c2c1=O)CCSC3`: the TGI is > 100 µM in the experiment on SF-268 CNS; 43.3 µM in the experiment with HL-60(TB) leukemia; > 100 µM with NCI/ADR-RES ovarian; > 100 µM in the experiment with IGROV1 ovarian; > 100 µM in the experiment with SK-OV-3 ovarian; > 100 µM in the experiment with U251 CNS. Besides, the TGI with HCT-15 colon, with COLO 205 colon, in the experiment with A549 NSCLC and in the experiment on NCI-H23 lung was > 100 µM each time.

For `CC(=O)Nc1cc([As](=O)(O)O)ccc1O`, the TGI in the experiment with SF-268 CNS, in the experiment with HL-60(TB) leukemia, in the experiment with NCI/ADR-RES ovarian, with IGROV1 ovarian, with SK-OV-3 ovarian and in the experiment on U251 CNS was > 100 µM throughout. In addition, the TGI in the experiment with HCT-15 colon, in the experiment on COLO 205 colon, in the experiment on A549 NSCLC and with NCI-H23 lung was > 100 µM each time.

As to `Cn1c(=O)c2c(nc(-n3nc(-c4ccc(Cl)cc4)cc3N)n2C)n(C)c1=O`, the TGI in the experiment with SF-268 CNS is > 100 µM; with HL-60(TB) leukemia, > 100 µM; with NCI/ADR-RES ovarian, > 100 µM; in the experiment with IGROV1 ovarian it was > 100 µM; in the experiment on SK-OV-3 ovarian, 91 µM; in the experiment with U251 CNS, > 100 µM. Besides, the TGI in the experiment on HCT-15 colon, with COLO 205 colon, in the experiment with A549 NSCLC and in the experiment on NCI-H23 lung was > 100 µM in each case.

For `COc1ccc2nc(N/N=C/C(C)=N/Nc3cc(C)c4cc(OC)ccc4n3)cc(C)c2c1`, the TGI with SF-268 CNS was 60.8 µM; with HL-60(TB) leukemia it was 40.6 µM; in the experiment on NCI/ADR-RES ovarian, 46.1 µM; in the experiment on IGROV1 ovarian, 47.1 µM; with SK-OV-3 ovarian, > 100 µM; with U251 CNS, 31.6 µM. Moreover, the TGI in the experiment on HCT-15 colon was found to be 25.1 µM; in the experiment on COLO 205 colon, 57.9 µM; in the experiment on A549 NSCLC, 45.7 µM; with NCI-H23 lung it was 48.9 µM.

With `CC1CNc2ccccc2N=C1NN` (stereo not given), the TGI is > 100 µM in the experiment on SF-268 CNS; > 24.8 µM in the experiment on HL-60(TB) leukemia; > 100 µM in the experiment with NCI/ADR-RES ovarian; > 100 µM in the experiment with IGROV1 ovarian; > 100 µM in the experiment on SK-OV-3 ovarian; > 100 µM in the experiment with U251 CNS. The TGI with HCT-15 colon, in the experiment with COLO 205 colon, in the experiment with A549 NSCLC and with NCI-H23 lung was > 100 µM in each case.

`Cc1cccc2nc3c(C(=O)NCCN(C)C)cccc3cc12`: the TGI was 5.09 µM in the experiment with SF-268 CNS; 3.37 µM in the experiment on HL-60(TB) leukemia; 6.23 µM with NCI/ADR-RES ovarian; 7.11 µM in the experiment with IGROV1 ovarian; 7.9 µM in the experiment on SK-OV-3 ovarian; 8.63 µM in the experiment on U251 CNS. Further, the TGI in the experiment on HCT-15 colon was 6.68 µM; in the experiment on COLO 205 colon, 2.62 µM; in the experiment on A549 NSCLC, 3.5 µM; with NCI-H23 lung, 5.02 µM.

With `NC(=O)c1cc2cc(Cl)cc(Cl)c2oc1=Nc1ccc(F)cc1`, the TGI in the experiment with SF-268 CNS was > 100 µM; in the experiment on HL-60(TB) leukemia, > 100 µM; in the experiment on NCI/ADR-RES ovarian, 34.5 µM; in the experiment with IGROV1 ovarian it was 87.3 µM; in the experiment with SK-OV-3 ovarian, 56.5 µM; in the experiment on U251 CNS, 41.2 µM. For the same molecule, the TGI with HCT-15 colon was determined as 42.3 µM; with COLO 205 colon, 40.6 µM; in the experiment with A549 NSCLC, 70.1 µM; in the experiment on NCI-H23 lung, 27.8 µM.

In the case of `COC(=O)C1=CC2CCCC1(O)C(C(C)=O)C2` (stereo not given), the TGI is > 67.3 µM with SF-268 CNS; 47.8 µM in the experiment on HL-60(TB) leukemia; > 100 µM in the experiment on NCI/ADR-RES ovarian; 32.9 µM with IGROV1 ovarian; > 100 µM with SK-OV-3 ovarian; > 100 µM with U251 CNS. Also, the TGI with HCT-15 colon, in the experiment with COLO 205 colon, in the experiment with A549 NSCLC and in the experiment on NCI-H23 lung was > 100 µM throughout.

`CNC(=O)OC(C)CN1c2ccccc2Sc2ccc(Cl)cc21` (stereo not given): the TGI in the experiment on SF-268 CNS, in the experiment on HL-60(TB) leukemia, with NCI/ADR-RES ovarian, in the experiment with IGROV1 ovarian, in the experiment with SK-OV-3 ovarian and with U251 CNS was > 10 µM in each case. Besides, the TGI in the experiment on HCT-15 colon, with COLO 205 colon, in the experiment with A549 NSCLC and in the experiment on NCI-H23 lung was > 10 µM each time.

Turning to `CC1SC(c2ccccc2)N(CCc2cccs2)C1=O` (stereo not given), the GI50 with SF-268 CNS was 3.56 µM; in the experiment on HL-60(TB) leukemia it was 2850 nM; in the experiment on NCI/ADR-RES ovarian it was 3.12 µM; in the experiment with IGROV1 ovarian, 4.72 µM; in the experiment with SK-OV-3 ovarian it was 7.64 µM; in the experiment on U251 CNS, 3.95 µM. Besides, the GI50 in the experiment on HCT-15 colon is 3.86 µM; with COLO 205 colon, 3.2 µM; in the experiment on A549 NSCLC, 4.16 µM; with NCI-H23 lung it was 3.23 µM. In addition, the TGI was found to be 16.1 µM in the experiment with SF-268 CNS; 8.67 µM with HL-60(TB) leukemia; 21.1 µM in the experiment on NCI/ADR-RES ovarian; 74.4 µM with IGROV1 ovarian; 20.9 µM in the experiment on SK-OV-3 ovarian; 14.5 µM with U251 CNS. The TGI with HCT-15 colon is 18.8 µM; with COLO 205 colon it was 10.8 µM; in the experiment with A549 NSCLC, 15.1 µM; with NCI-H23 lung, 15.1 µM.
